{
  "source": "paper PMC10530652",
  "about": "(BME Frontiers, 2021)",
  "key": {"MMP-9": {"biological_target": "T1, MMP-9 (Homo sapiens, UniProt P14780)", "T1 construct": "recombinant MMPs (Enzo Life Sciences) (active domains of MMP-1, MMP-2, MMP-3, MMP-7, MMP-8, MMP-9, MMP-10, MMP-11, MMP-12, and MMP-13); purchased Enzo Life Sciences", "T1 sequence (P14780 107-444 limits assumed)": "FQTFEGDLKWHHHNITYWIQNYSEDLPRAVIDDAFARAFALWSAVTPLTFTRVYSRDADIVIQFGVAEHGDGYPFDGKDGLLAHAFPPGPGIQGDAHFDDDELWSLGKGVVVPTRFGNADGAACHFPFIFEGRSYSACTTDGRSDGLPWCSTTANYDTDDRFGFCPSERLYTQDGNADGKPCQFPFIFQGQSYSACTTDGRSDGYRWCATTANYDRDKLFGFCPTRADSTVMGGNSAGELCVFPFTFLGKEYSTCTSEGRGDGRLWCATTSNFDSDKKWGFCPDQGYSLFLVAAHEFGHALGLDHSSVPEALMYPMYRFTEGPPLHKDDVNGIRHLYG", "assay": "In vitro enzymatic validation of FIB One with recombinant MMP-9 (plate reader)", "assay_type": "biochemical", "conditions": "MMP 30 nM, n=3 in duplicate", "procedure": "To determine the enzymatic specificity of FIB One, the probe was incubated at a concentration of 1 μM (unless otherwise stated) with the recombinant MMPs (Enzo Life Sciences) (active domains of MMP-1, MMP-2, MMP-3, MMP-7, MMP-8, MMP-9, MMP-10, MMP-11, MMP-12, and MMP-13, all at 30 nM), thrombin (Sigma Aldrich) (5 U/mL), factor Xa (Sigma Aldrich) (500 nM), plasmin (Sigma Aldrich) (30 nM), and human neutrophil elastase (30 nM). Where appropriate, enzymes were incubated with specific inhibitors for 30 min at 37°C prior to addition of FIB One. […] Enzyme free reactions served as a control. Enzymatic reactions were performed in MMP buffer (10 mM CaCl2, 6.1 g Tris-HCl, 8.6 g NaCl per litre, pH 7.5) in a final volume of 20 μL. Reactions were performed in duplicate in 384-well plates (Life Technologies) with optically clear plate seals (Thermo Scientific) and repeated thrice (independently). Fluorescence signal was measured for up to 60 min, ex/em 485/528 nm using microplate reader (BioTek Synergy H1 multimode reader). Data were normalised to buffer alone and are presented as fold-change in signal (relative fluorescent units, RFU) compared to enzyme-free controls. Data were plotted using Prism 7 (GraphPad Software Inc., La Jolla, CA, USA)."}, "[1]": {"test_system": "primary human lung tissue", "assay": "Ex vivo fibre-based (FCFM) imaging of human lung tissue with FIB One", "conditions": "FIB One 1 μM, imaged 10 min, FCFM 488 nm excitation, n=9", "procedure": "Human lung tissue samples (lung tumour and noncancerous adjacent tissue) were obtained following surgical resection and stored at -80° C until use. Processing for multiwell plate reader assay or zymography analysis was conducted as follows: 1 mm×4 mm sections were homogenised in 400 μL MMP buffer in Precellys 2.8 mm ceramic bead tubes (VWR) using a Pecellys 24 homogeniser. Homogenised tissue was adjusted to 4 mg mL^-1 protein (determined by a Pierce BCA Total Protein Assay Kit (Thermo Fisher Scientific), following the manufacturer’s instructions). Multiwell plate reader assays were performed as previously described, replacing the MMP buffer and MMP enzymes for the homogenised and protein-adjusted lung tissue.\nFor ex vivo imaging, human lung tissue was sliced into 1 mm×4 mm sections and placed in the wells of a 96-well plate with 100 μL of MMP buffer and 30 nM MMP-13. […] The fluorescence for each sample was calculated by determining the average fluorescence per frame for each time point. […] Five independent patient specimens were collected and analysed. RFUs collected from off-target frames (showing motion artefact or absence of any fluorescence) were omitted during analysis."}, "[2]": {"test_system": "MMP activity in ex vivo ventilated ovine lung", "assay": "Ex vivo ovine lung model instilled with OPA supernatant, FCFM imaging", "conditions": "5 μM FIB One in 1 mL, OPA supernatant-instilled segments, n=3", "procedure": "Ovine pulmonary adenocarcinoma (OPA) tissue was homogenised using a drill homogeniser, followed by lysis in cell lysis buffer. The supernatant was collected following centrifugation at 12,000 rpm for 20 min. The samples were adjusted to 1 mg mL^-1 total protein (determined by a Pierce BCA Total Protein Assay Kit (Thermo Fisher Scientific)). Zymography (as described above) was performed to confirm MMP activity across multiple OPA samples. Recombinant MMP-9 (2 nM) and recombinant pro-MMP-9 (0.5 nM) were included in the assay as positive controls. […] Following >30 min, the segments were bronchoscopically identified and microdosed with 5 μM FIB One in 1 mL. FCFM imaging was undertaken pre- and postinstillation (Cellvizio®, Mauna Kea Technologies). This was performed by passing a FCFM fibre into the disparate bronchopulmonary segments (up to 5 passes per bronchopulmonary segment to capture a regional representation of fluorescence), recording images at 12 frames per second and imaging for up to 5 minutes. Videos were analysed as described above. Each experimental set was normalised to the control segment (segment with 1 mL 0.9% NaCl instilled) which represents intrinsic autofluorescence."}},
  "data": [
    {"substance": "(Pro-Phe-Gly-Nle-Lys-βAla)3 [FIB One]", "values": [
      {"measurement": "fluorescent amplification of FIB One on exposure to enzyme", "setting": "MMP-9; FIB One 1 μM, MMP buffer pH 7.5, ex/em 485/528 nm, fold-change vs enzyme-free control", "value": "rapid and specific fluorescent amplification"},
      {"measurement": "signal amplification compared with analogous monomeric linear structure (FRET-monomer)", "setting": "MMP-9; probes 1 µM, 10 min incubation", "value": "improved signal amplification"},
      {"measurement": "cleavage of FIB One", "setting": "[1]", "value": "cleaved"},
      {"measurement": "FIB One fluorescence in segments with high MMP activity", "setting": "[2]", "value": "diffuse pattern of increased fluorescence"}
    ]}
  ]
}
